Measurements published in PMC8000760, “Potential Effect of Pseudevernia furfuracea (L.) Zopf Extract and Metabolite Physodic Acid on Tumour Microenvironment Modulation in MCF-10A Cells” (Biomolecules, 2021).

Legend:
[1] = test system: MCF-10A, BJ-5ta and HUVEC cells; experiment: MTS cell viability assay, range over the three cell lines; assay type: cell-based; conditions: cell viability and cell proliferation tests
Method: Briefly, MCF-10A and BJ-5ta were seeded in 96-well culture plates, and after 24 h incubation, treated with various ranges of concentrations of tested compounds (10–100 μg/mL) for 72 h. At the same time, HUVECs were seeded in a gelatine-coated 96-well plate and treated with the same aliquots of indicated compounds in the presence or absence of VEGF (Vascular endothelial growth factor) (25 ng/mL) for 48 h. Cell viability was evaluated by measuring the absorbance at 490 nm using the automated CytationTM 3 Cell Imaging Multi-Mode Reader (Biotek, Winooski, VT, USA). Three independent experiments were performed at different intervals.

[2] = test system: N-cadherin in TGF-β-stimulated MCF-10A cells; experiment: N-cadherin expression, flow cytometry; assay type: cell-based, human; conditions: IC10, 24, 48, 72 h, compared to TGF-β alone
Method: (§1) The MCF-10A and BJ-5ta cells were seeded and cultivated for 24 h in a complete medium. One day after seeding, 30 ng/mL of TGF-β was added and cultivated for 7 days (d). TGF-β was added to induce epithelial–mesenchymal transition in tested cell lines. Lichen extract P. furfuracea (L.) Zopf and its metabolite physodic acid were added at time 0 h and then incubated for 24, 48 and 72 h for various analyses, as described in Figure 1.
The MCF-10A cells (1 × 10^4/well) were seeded in Petri dishes and stimulated with […] TGF-β for 7 days. […] After detaching, using Trypsin/EDTA, cells were harvested and pelleted by centrifugation at 1200 rpm for 5 min. Pellet was re-suspended in PBS and divided for a particular analysis. Cells were stained prior to analyses with E-Cadherin Mouse mAb (Alexa Fluor 488 conjugate) or N-cadherin Rabbit mAb (Alexa Fluor 647 conjugate) (Cell Signalling) for 15 min at RT in the dark. For the cell cycle analyses, cells were re-suspended in staining solution (final concentration 0.1% Triton X-100, 0.5 mg/mL ribonuclease A and 0.025 mg/mL propidium iodide (PI)), and incubated in the dark at RT for 30 min. All samples were analysed using a FACS Calibur flow cytometer (Becton Dickinson, San Jose, CA, USA). The IgG isotype control checking was performed for every used antibody.

[3] = test system: N-cadherin in TGF-β-stimulated MCF-10A cells; experiment: N-cadherin expression, immunofluorescence staining; assay type: cell-based, human; conditions: IC10, 72 h, compared to TGF-β alone
Method: as §1
The MCF-10A cells at a density of 2 × 10^3/cm^2, plated on 22 mm^2 glass coverslips, were stimulated for 7 days with 30 ng/mL of TGF-β. […] After treatment, cells were washed with PBS, fixed with 4% paraformaldehyde (pH 7.2) for 10 min, permeabilised by 0.1% Triton X-100 (Sigma-Aldrich) for 10 min at RT and then washed three) times with PBS for 5 min. Glass coverslips were then incubated with Swine serum (1:30) for 30 min for blocking non-specific binding. Primary antibodies were diluted according to the manufacturer’s instructions (Table 2) and transferred to coverslips for 90 min. […] All coverslips were mounted in Vectashield (Cole-Parmer, Illinois, USA) and immunofluorescence pictures were taken with the same exposition settings by the Nikon Eclipse 90i fluorescence microscope (Nikon, Tokyo, Japan) equipped with filter cubes for FITC and DAPI. Images were then analysed using ImageJ (NIH) software.

[4] = test system: E-cadherin in TGF-β-stimulated MCF-10A cells; experiment: E-cadherin expression (Western blot, flow cytometry, immunofluorescence); assay type: cell-based, human; conditions: TGF-β-stimulated groups
Method: as §1
The MCF-10A cells (1 × 10^4/well) were seeded in Petri dishes and stimulated with […] TGF-β for 7 days. […] After detaching, using Trypsin/EDTA, cells were harvested and pelleted by centrifugation at 1200 rpm for 5 min. […] All samples were analysed using a FACS Calibur flow cytometer (Becton Dickinson, San Jose, CA, USA). […]
(§2) Proteins isolated from MCF-10A and BJ-5ta cell lysates were determined by the Pierce® BCA Protein Assay Kit (Thermo Scientific, Rockford, IL, United States), using bovine serum albumin (BSA) as the standard, and measured by an automated Cytation™ 3 Cell Imaging Multi-Mode Reader (Biotek) at a wavelength of 570 nm. […] After incubation, the membrane was again washed in TBS-Tween (3 × 5 min), and the expression of the protein was detected using a chemiluminescent ECL substrate (Thermo Fisher Scientific) and MF-ChemiBIS 2.0 Imaging System (DNR BIO-Imaging Systems, Jerusalem, Israel). […]

[5] = test system: fibronectin in TGF-β-stimulated MCF-10A cells; experiment: Fibronectin expression, Western blot; assay type: cell-based, human; conditions: IC10 and IC50, dose-dependent manner
Method: as §1
as §2, with “nm. Proteins were separated on SDS-PAA gel (12%) at 100 V for 2 h and then transferred to a polyvinylidene difluoride (PVDF) membrane using the iBlot dry blotting system (Thermo Scientific, Rockford, IL, United States).” for “nm.”, “Israel). The detected band was then analysed densitometrically using the Image Studio Lite software (LI-COR Biosciences, Lincoln, NE, USA).” for “Israel).”

E-cadherin in BJ-5ta = experiment: Western blot of E-cadherin in TGF-β-stimulated fibroblasts; assay type: cell-based; conditions: TGF-β-stimulated BJ-5ta, 48 and 72 h
Method: as §1
as §2, with “nm. Proteins were separated on SDS-PAA gel (12%) at 100 V for 2 h and then transferred to a polyvinylidene difluoride (PVDF) membrane using the iBlot dry blotting system (Thermo Scientific, Rockford, IL, United States).” for “nm.”, “Israel). The detected band was then analysed densitometrically using the Image Studio Lite software (LI-COR Biosciences, Lincoln, NE, USA).” for “Israel).”

pSmad2/3 in BJ-5ta = experiment: Western blot of phospho-Smad2/3 in TGF-β-stimulated fibroblasts; assay type: cell-based; conditions: TGF-β-stimulated BJ-5ta, time-dose manner
Method: as §1
as §2, with “nm. Proteins were separated on SDS-PAA gel (12%) at 100 V for 2 h and then transferred to a polyvinylidene difluoride (PVDF) membrane using the iBlot dry blotting system (Thermo Scientific, Rockford, IL, United States).” for “nm.”, “Israel). The detected band was then analysed densitometrically using the Image Studio Lite software (LI-COR Biosciences, Lincoln, NE, USA).” for “Israel).”

[6] = test system: chorioallantoic membrane (CAM) of fertilised quail eggs; experiment: Ex ovo chorioallantoic membrane (CAM) assay; assay type: in vivo, Coturnix coturnix japonica
Method: Fertilised quail eggs (Coturnix coturnix japonica; 20 specimens) were obtained from the certified farm (Mala Ida, Slovakia) and incubated horizontally in a forced draft constant humidity incubator at 38.2 ± 0.5 °C and 58% relative humidity. After 56 h, the eggs were sterilised by wiping the surface lightly with 70% ethanol and allowed to dry. An incision was made in the middle ventral part of the shell, using sterile scissors, and the embryos were deposited in six-well tissue culture dishes (Sigma-Aldrich), which were then returned to the humidified incubator for an additional 4 days, until the start of the experiments. At day 7 (96 h after day 3), a sterilised silicone ring (10 mm inner diameter) was laid on CAM surface for the deposition of testing solution. […] At least 10 eggs were used in every experimental group. The photographs of CAM blood vessels’ formation inside of rings were obtained using a stereomicroscope Olympus SZ61 (Tokyo, Japan) and digital camera PROMICRA 3.2 (Prague, Czech Republic). Subsequently, photographs were pre-processed using QuickPHOTO MICRO microscope software (Promicra; Prague, Czech Republic). Representative images were then analysed using Wimasis Image Analysis automatic software to quantify the angiogenesis.

[7] = VEGF-stimulated (25 ng/mL), IC10, 72 h, compared to VEGF alone

CCCCCC(=O)Cc1cc(O)cc2c1C(=O)Oc1cc(O)c(C(=O)O)c(CCCCC)c1O2 [Phy, physodic acid]
degree of cytotoxicity on all tested cells [1]: did not show a high degree of cytotoxicity | N-cadherin expression, flow cytometry [2]: significantly reduced | N-cadherin expression, immunofluorescence [3]: significant decrease | restoration of E-cadherin [4]: did not observe a significant restoration | levels of fibronectin, Western blot [5]: downregulated | expression of epithelial marker E-cadherin (E-cadherin in BJ-5ta): did not significantly change | phosphorylation levels of Smad2 and Smad3 (pSmad2/3) (pSmad2/3 in BJ-5ta): decreased | total branching points [6, 7]: significant decrease | total vascular network length [6, 7]: significant decrease | vascular density [6, 7]: significant decrease | total branching points ([6]; absence of VEGF): not significantly affected | vessel density ([6]; non-stimulated group (absence of VEGF)): significant change
